Measured values as given in patent publication US10300048B2, “Thiazolidinones as cellular anandamide uptake inhibitors and their use in the treatment of psychiatric or neurological disorders and inflammation, in particular neuroinflammation” (UNIVERSITAT BERN, priority 2014, dated 2019).
pIC50, pKi: −log10 of the molar value. Like-named read-outs stand apart in the source and are kept apart here.

Columns and labels:
[1] = system: AEA cellular uptake, U937 cells; experiment: [3H]-AEA cellular uptake inhibition in U937 cells; type: cell-based; conditions: Table 1, U937 cells, 100 nM AEA, read-out: AEA uptake inhibition IC50
Description: [^3H]-AEA Cellular Uptake
Screening for AEA cellular uptake inhibition was performed in a semi-automated procedure: Pipetting and washing steps were performed by a Biomek3000 laboratory workstation. First, required amounts of U937 cells were centrifuged at 100×g for 5 min and resuspended in RPMI (37° C.) to a final concentration of 2×10^6 cells/mL. Then, 250 μL of cell suspension (0.5×10^6 cells per sample) were transferred into AquaSil™ silanized glass vials (Chromacol 1.1-MTV) in 96-well format. After addition of 5 μL vehicle (DMSO) or compounds the cells were incubated at 37° C. for 15 min. As positive controls OMDM-2 and UCM707 were used at 10 μM in each run. The ETI-T compounds were measured at up to 7 concentrations in triplicates from 100 pM-100 μM. After pre-incubation, a mixture of 0.5 nM[ethanolamine-1-^3H]-AEA, (60 Ci/mmol) and 99.5 nM of cold AEA (final 100 nM) was added and samples were incubated at 37° C. for another 15 min. The reaction was stopped by rapid filtration over UniFilter-96 GF/C filters (PerkinElmer) pre-soaked with PBS 0.25% BSA. Cells were washed three times with 100 μL ice-cold PBS buffer containing 1% fatty acid free BSA. After drying, 45 μL MicroScint 20 scintillation cocktail (PerkinElmer, Waltham, Mass., US) was added to the wells and the plate was sealed. Radioactivity was measured by liquid scintillation counting on a PerkinElmer Wallac Trilux MicroBeta 1450 during 2 min. Non-specific binding of [^3H]AEA (100 nM) to the glass vials was never higher than 10%. IC50 values were calculated by GraphPad® by non-linear regression using the built-in log(inhibitor) vs. response-variable slope (four parameters) function.
(§1) Statistical analysis and IC50 values were determined using GraphPad® Prism 5.0 (GraphPad® Software, San Diego, Calif., US). Inhibition curves were obtained by non-linear regression using the built-in log(inhibitor) vs. response-variable slope (four parameters) function. Results were calculated as % of vehicle control of the corresponding fraction (cells, aqueous phase) if not mentioned else. In vivo results are shown in absolute values and were analyzed by a one-way ANOVA following a Tukey's multiple comparison test or student's t-test. If not indicated else the results were compared vs. vehicle (CTRL). *** P<0.001, ** P<0.01, * P<0.05, ns=not significant P>0.05.

FAAH = FAAH (Homo sapiens (Human), UniProt O00519); experiment: FAAH activity: hydrolysis of [3H]-AEA in U937 cell homogenates; type: biochemical; conditions: Table 2; U937 cell homogenate; read-out: FAAH inhibition IC50
Chain of FAAH (O00519 whole entry): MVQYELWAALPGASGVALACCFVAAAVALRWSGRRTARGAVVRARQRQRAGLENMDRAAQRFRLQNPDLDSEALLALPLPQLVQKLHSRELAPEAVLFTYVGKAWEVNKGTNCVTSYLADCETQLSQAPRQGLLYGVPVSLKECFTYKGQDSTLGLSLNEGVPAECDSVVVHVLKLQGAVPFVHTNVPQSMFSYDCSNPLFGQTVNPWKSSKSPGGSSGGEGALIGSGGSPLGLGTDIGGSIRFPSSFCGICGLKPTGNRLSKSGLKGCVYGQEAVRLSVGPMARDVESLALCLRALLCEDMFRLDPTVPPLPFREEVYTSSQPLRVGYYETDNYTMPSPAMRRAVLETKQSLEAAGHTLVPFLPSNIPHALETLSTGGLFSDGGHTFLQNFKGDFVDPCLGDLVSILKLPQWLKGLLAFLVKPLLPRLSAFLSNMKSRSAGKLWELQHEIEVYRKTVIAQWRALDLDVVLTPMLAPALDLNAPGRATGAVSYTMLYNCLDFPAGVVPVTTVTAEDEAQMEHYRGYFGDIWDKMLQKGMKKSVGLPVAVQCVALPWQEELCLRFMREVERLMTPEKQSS
Description: Hydrolysis of [^3H]-AEA by FAAH was determined as previously described in cell homogenates of U937 cells (0.18 mg protein) (Omeir et al., 1999, Biochem Biophys Res Commun, 264, 316-20; Mor et al., 2004, J Med Chem, 47, 4998-5008). Protein amounts of cell homogenates corresponded to 0.5×10^6 cells (U937), to assure best possible comparability of IC50 values as used for the AEA cellular uptake assays. URB597 was used as positive control. Protein quantification was performed using a BCA assay (Thermo Scientific). Enzyme activity was assessed by addition of vehicle or compounds in 10 μL DMSO to 490 μL homogenate in 10 mM Tris HCl, 1 mM EDTA, 0.1% (w/v) BSA fatty acid free, pH=8 and incubation for 15 min at 37° C. After, a mixture of AEA plus [ethanolamine-1-^3H]-AEA (0.5 nM) at final 100 nM was added to the homogenates and incubated for 15 min at 37° C. The reaction was stopped by addition of 1 mL ice-cold CHCl3:MeOH (1:1) followed by vigorous vortexing. Phase separation was achieved by centrifugation at 10′000×g at 4° C. for 10 min. Radioactivity of the separated aqueous phase (upper phase) containing [^3H-ethanolamine] or [^3H-glycerol] was measured by liquid scintillation counting on a Tri-Carb 2100 TR liquid scintillation analyzer after addition of 3.5 mL Ultima Gold scintillation cocktail (PerkinElmer Life Sciences). Results are expressed as hydrolysis of tritium substrate in percent of vehicle treated control. IC50 values were calculated by GraphPad®. Data are reported as means of n=3 independent experiments performed in triplicates.
as §1

CB1 receptor = conditions: literature values of reference substances; cited from earlier work

Row | SMILES | pIC50 [1] | pIC50 (FAAH) | pKi (CB1 receptor) | pIC50 ([1]; Homo sapiens, U-937)
1 | CCCCC/C=C\C/C=C\C/C=C\C/C=C\CCCC(=O)NCc1ccoc1 [UCM707, N-(3-furanylmethyl)-(5Z,8Z,11Z,14Z)-eicosatetraenamide, reference compound] | 5.72 | 5.08 | < 6.00 | 
2 | CCCCCCCC/C=C\CCCCCCCC(=O)N[C@@H](CO)c1ccc(O)cc1 [OMDM-2, (R)—N-(1-(4-hydroxyphenyl)-2-hydroxyethyl)oleamide, reference compound] |  |  | 5.29 | 5.41
